Assay results: patent US20220281819A1, “THERAPEUTIC COMPOUNDS AND METHODS OF USE” (priority 2020, published 2022)

Key:
Assay type in all cases: binding
TEAD2 [1] = target: T1, TEAD2 (Homo sapiens, UniProt Q15562); assay: TEAD2 Lipid + 4 hr HTRF WUXI (TR-FRET lipid pocket probe competition, 4 h pre-incubation); settings: 4 hours pre-incubation with compound at room temperature; Table 3
Procedure: (§1) His-tagged TEAD2 or 4 proteins are pre-incubated with TEAD project compounds for 4 hours at room temperature. Biotinylated lipid pocket probes are then added to the TEAD/Compound mixture and incubated for 60 minutes at room temperature. The lipid pocket probe competes with the test compound for the TEAD lipid pocket until equilibrium is reached. After 60 minutes, Europium labelled anti-His (Perkin Elmer #AD0110) and XL665 labelled streptavidin (CIS Bio 610SAXAC) are added to the TEAD/test compound/lipid pocket mixture and incubated for 30 minutes. TR-FRET values are then measured using an EnVision multi-label plate reader (Perkin Elmer Cat#2104-0010A.) If the lipid pocket probe binds to TEAD as expected, a TR-FRET signal results from the proximity of anti-His Eu and XL665. If a TEAD lipid pocket binder such as binds and displaces the lipid pocket probe, the disruption of the TEAD:probe interaction results in a decrease in TR-FRET signal. The potency of compounds as TEAD lipid pocket binders is determined by IC50 value generated using a non-linear 4 parameter curve fit.

TEAD1 = TEAD1 (Homo sapiens, UniProt P28347); assay: Lipid HTRF (TR-FRET lipid pocket probe competition), 30 min pre-incubation, TEAD1; settings: His-tagged TEAD1, 30 minutes pre-incubation with compound at room temperature; read-out: Lipid HTRF TEAD1 IC50
Procedure: as §1, with “TEAD” for “TEAD2 or 4”, “30 minutes” for “4 hours”, “TR-FRET values are then measured using an EnVision multi-label plate reader (Perkin Elmer Cat#2104-0010A.) If the lipid pocket probe binds to TEAD as expected, a TR-FRET signal results from the proximity of anti-His Eu and XL665.” left out

TEAD2 [2] = target: T1, TEAD2; assay: Lipid HTRF (TR-FRET lipid pocket probe competition), 30 min pre-incubation, TEAD2; settings: His-tagged TEAD2, 30 minutes pre-incubation with compound at room temperature; read-out: Lipid HTRF TEAD2 IC50
Procedure: as §1, with “TEAD” for “TEAD2 or 4”, “30 minutes” for “4 hours”, “TR-FRET values are then measured using an EnVision multi-label plate reader (Perkin Elmer Cat#2104-0010A.) If the lipid pocket probe binds to TEAD as expected, a TR-FRET signal results from the proximity of anti-His Eu and XL665.” left out

TEAD3 = TEAD3 (Homo sapiens, UniProt Q99594); assay: Lipid HTRF (TR-FRET lipid pocket probe competition), 30 min pre-incubation, TEAD3; settings: His-tagged TEAD3, 30 minutes pre-incubation with compound at room temperature; read-out: Lipid HTRF TEAD3 IC50
Procedure: as §1, with “TEAD” for “TEAD2 or 4”, “30 minutes” for “4 hours”, “TR-FRET values are then measured using an EnVision multi-label plate reader (Perkin Elmer Cat#2104-0010A.) If the lipid pocket probe binds to TEAD as expected, a TR-FRET signal results from the proximity of anti-His Eu and XL665.” left out

TEAD4 = TEAD4 (Homo sapiens, UniProt Q15561); assay: Lipid HTRF (TR-FRET lipid pocket probe competition), 30 min pre-incubation, TEAD4; settings: His-tagged TEAD4, 30 minutes pre-incubation with compound at room temperature; read-out: Lipid HTRF TEAD4 IC50
Procedure: as §1, with “TEAD” for “TEAD2 or 4”, “30 minutes” for “4 hours”, “TR-FRET values are then measured using an EnVision multi-label plate reader (Perkin Elmer Cat#2104-0010A.) If the lipid pocket probe binds to TEAD as expected, a TR-FRET signal results from the proximity of anti-His Eu and XL665.” left out

T1 sequence (Q15562 whole entry, species assumed): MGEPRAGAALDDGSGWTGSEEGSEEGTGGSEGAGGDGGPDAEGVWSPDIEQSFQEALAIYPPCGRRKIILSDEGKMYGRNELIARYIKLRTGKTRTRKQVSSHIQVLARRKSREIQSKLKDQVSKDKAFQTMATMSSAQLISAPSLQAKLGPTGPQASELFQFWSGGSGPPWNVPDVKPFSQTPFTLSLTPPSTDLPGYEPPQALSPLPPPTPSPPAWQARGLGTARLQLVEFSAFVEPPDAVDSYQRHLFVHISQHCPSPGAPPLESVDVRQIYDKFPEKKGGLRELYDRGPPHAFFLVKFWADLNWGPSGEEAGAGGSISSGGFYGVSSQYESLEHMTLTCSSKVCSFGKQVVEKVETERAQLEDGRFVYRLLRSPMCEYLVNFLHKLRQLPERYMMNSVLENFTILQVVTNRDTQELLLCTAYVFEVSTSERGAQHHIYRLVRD
TEAD1, sequence (P28347 whole entry, species assumed): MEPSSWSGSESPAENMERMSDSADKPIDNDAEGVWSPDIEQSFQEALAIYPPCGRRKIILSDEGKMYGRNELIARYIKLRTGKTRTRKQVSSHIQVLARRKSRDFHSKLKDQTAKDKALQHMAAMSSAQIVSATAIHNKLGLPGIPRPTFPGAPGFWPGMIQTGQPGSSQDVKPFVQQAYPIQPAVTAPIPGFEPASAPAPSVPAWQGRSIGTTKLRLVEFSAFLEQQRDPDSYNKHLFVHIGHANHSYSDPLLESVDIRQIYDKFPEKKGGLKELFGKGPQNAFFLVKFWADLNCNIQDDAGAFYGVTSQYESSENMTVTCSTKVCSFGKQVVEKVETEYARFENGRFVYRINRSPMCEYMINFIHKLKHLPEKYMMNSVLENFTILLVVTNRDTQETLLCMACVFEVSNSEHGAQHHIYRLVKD
TEAD4, sequence (Q15561 whole entry, species assumed): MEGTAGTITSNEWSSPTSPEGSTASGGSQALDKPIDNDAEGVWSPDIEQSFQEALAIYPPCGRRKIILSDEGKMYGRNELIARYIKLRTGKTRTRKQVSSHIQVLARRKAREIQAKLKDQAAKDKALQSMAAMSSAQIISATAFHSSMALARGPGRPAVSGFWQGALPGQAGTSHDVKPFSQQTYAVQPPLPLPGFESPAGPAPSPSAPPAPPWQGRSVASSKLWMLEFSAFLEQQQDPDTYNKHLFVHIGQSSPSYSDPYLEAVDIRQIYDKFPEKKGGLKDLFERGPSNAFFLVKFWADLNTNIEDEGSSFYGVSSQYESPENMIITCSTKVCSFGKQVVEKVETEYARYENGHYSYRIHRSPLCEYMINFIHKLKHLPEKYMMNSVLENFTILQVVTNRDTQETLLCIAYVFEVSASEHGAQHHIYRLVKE
TEAD3, sequence (Q99594 whole entry, species assumed): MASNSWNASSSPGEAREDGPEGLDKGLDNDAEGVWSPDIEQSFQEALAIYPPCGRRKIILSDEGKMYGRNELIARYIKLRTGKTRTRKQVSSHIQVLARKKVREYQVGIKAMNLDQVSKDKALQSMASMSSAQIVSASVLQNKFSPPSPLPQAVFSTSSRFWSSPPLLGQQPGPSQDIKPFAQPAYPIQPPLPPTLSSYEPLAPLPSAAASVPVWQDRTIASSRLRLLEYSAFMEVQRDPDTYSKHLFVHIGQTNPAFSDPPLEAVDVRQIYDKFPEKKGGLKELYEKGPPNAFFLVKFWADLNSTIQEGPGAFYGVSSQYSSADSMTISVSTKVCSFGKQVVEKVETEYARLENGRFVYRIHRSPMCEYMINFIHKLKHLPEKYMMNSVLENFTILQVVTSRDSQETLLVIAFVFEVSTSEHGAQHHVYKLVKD

SMILES	IC50 (TEAD2 [1]) [nM]	IC50 (TEAD1) [nM]	IC50 (TEAD2 [2]) [nM]	IC50 (TEAD3) [nM]	IC50 (TEAD4) [nM]
C=CC(=O)Nc1cc(-c2ccc(OC(F)(F)F)cc2)c2ncsc2c1C#N [Final product from Example 55, N-(7-Cyano-4-(4-(trifluoromethoxy)phenyl)benzo[d]thiazol-6-yl)acrylamide]	18.9				
C=CC(=O)Nc1cc(-c2ccc(OC(F)(F)F)cc2)c2c(c1CO)CCO2 [Final product from Example 53, N-(4-(Hydroxymethyl)-7-(4-(trifluoromethoxy)phenyl)-2,3-dihydrobenzofuran-5-yl)acrylamide]	3.4				
C=CC(=O)Nc1cc(-c2ccc(S(F)(F)(F)(F)F)cc2)c2c(c1CO)CCO2 [Final product from Example 54, N-[4-(Hydroxymethyl)-7-[4-(pentafluoro-6-sulfanyl)phenyl]-2,3-dihydrobenzofuran-5-yl]prop-2-enamide]	8.6				
C=CC(=O)Nc1cnc(OC)c(/C=C/C2CCC(F)(F)CC2)c1 [Final product from Example 4, (E)-N-(5-(2-(4,4-Difluorocyclohexyl)vinyl)-6-methoxypyridin-3-yl)acrylamide]		120	260	280	460
CC(C)c1ccc(-c2cc(N(C)C(=O)NC#N)c(C#N)c3c2OCC3)cc1 [Final product from Example 47, 3-cyano-1-[4-cyano-7-(4-isopropylphenyl)-2,3-dihydrobenzofuran-5-yl]-1-methyl-urea]		2900	2700	30000	840
C=CC(=O)Nc1cc(/C=C/[C@H]2CC[C@H](C(F)(F)F)CC2)c(OC)nc1OC [Final product from Example 26, N-(2,6-Dimethoxy-5-((E)-2-(trans-4-(trifluoromethyl)cyclohexyl)vinyl)pyridin-3-yl)acrylamide]		240	150	1000	80
C=CC(=O)Nc1cnc(OC)c(COC2CC3(CC3)C2)c1 [Final product from Example 11, N-(6-Methoxy-5-((spiro[2.3]hexan-5-yloxy)methyl)pyridin-3-yl)acrylamide]		1200	1750	3600	5700
CC(F)(F)c1ccc(-c2cc(NC(=O)[C@@H]3CO3)c(C#N)c3c2OCC3)cc1 [Final product from Example 48, (S)-N-(4-cyano-7-(4-(1,1-difluoroethyl)phenyl)-2,3-dihydrobenzofuran-5-yl)oxirane-2-carboxamide]		50	60	180	90
C=CC(=O)Nc1cc(/C=C/C2CCC(F)(F)CC2)c(OC)cn1 [Final product from Example 7, (E)-N-(4-(2-(4,4-difluorocyclohexyl)vinyl)-5-methoxypyridin-2-yl)acrylamide]		60	230	130	120
CC(C)c1ccc(-c2cc(NC(=O)C3(CCC(N)=O)CO3)c(C#N)c3c2OCC3)cc1 (single isomer, unassigned) [Enantiomer B from Example 52, 2-(3-Amino-3-oxopropyl)-N-(4-cyano-7-(4-isopropylphenyl)-2,3-dihydrobenzofuran-5-yl)oxirane-2-carboxamide]		6000	> 50000	> 50000	> 50000
C=CC(=O)N(CCO)c1cc(/C=C/[C@H]2CC[C@H](C(F)(F)F)CC2)c(OC)cn1 [Final product from Example 15, N-(2-Hydroxyethyl)-N-(5-methoxy-4-((E)-2-(trans-4-(trifluoromethyl)cyclohexyl)vinyl)pyridin-2-yl)acrylamide]		2200	730	4100	340
C=CC(=O)Nc1cc(/C=C/C2CCC(F)(F)CC2)c2ocnc2c1 [Final product from Example 40, (E)-N-(7-(2-(4,4-Difluorocyclohexyl)vinyl)benzo[d]oxazol-5-yl)acrylamide]		90	850	160	760
C=CC(=O)Nc1cnc(OC)c(/C=C/[C@H]2CC[C@H](C(F)(F)F)CC2)c1 [Final product from Example 2, N-(6-methoxy-5-((E)-2-(trans-4-(trifluoromethyl)cyclohexyl)vinyl)pyridin-3-yl)acrylamide]		260	130	1130	280
C=CC(=O)Nc1cc(/C=C/[C@H]2CC[C@H](C(F)(F)F)CC2)c(OC)c(C2CC2)n1 [Final product from Example 12, N-(6-Cyclopropyl-5-methoxy-4-((E)-2-(trans-4-(trifluoromethyl)cyclohexyl)vinyl)pyridin-2-yl)acrylamide]		590	1050	2450	400
C=CC(=O)Nc1cc(-c2ccc(C(C)C)cc2)c(OC)cc1F [Final product from Example 16, N-(4-fluoro-4′-isopropyl-6-methoxy-[1,1′-biphenyl]-3-yl)acrylamide]		140	540	90	280
